Results reported in ChEMBL document CHEMBL1137483, “Novel chalcones as probes for in vivo imaging of beta-amyloid plaques in Alzheimer's brains” (Bioorg Med Chem, 2007).

Assays:
Liver [1] = assay: Biodistribution in ddY mouse liver at 0.2 to 0.3 uCi, iv after 2 mins; format: ADME, organism-based; conditions: in vivo
Heart [2] = assay: Biodistribution in ddY mouse heart at 0.2 to 0.3 uCi, iv after 2 mins; format: ADME, organism-based; conditions: in vivo
Kidney [3] = assay: Biodistribution in ddY mouse kidney at 0.2 to 0.3 uCi, iv after 30 mins; format: ADME, organism-based; conditions: in vivo, 0.5 h
Intestine [4] = assay: Biodistribution in ddY mouse intestine at 0.2 to 0.3 uCi, iv after 2 mins; format: ADME, organism-based; conditions: in vivo
Spleen [5] = assay: Biodistribution in ddY mouse spleen assessed as at 0.2 to 0.3 uCi, iv after 30 mins; format: ADME, organism-based; conditions: in vivo, 0.5 h
Lung [6] = assay: Biodistribution in ddY mouse lung at 0.2 to 0.3 uCi, iv after 2 mins; format: ADME, organism-based; conditions: in vivo
Kidney [7] = assay: Biodistribution in ddY mouse kidney at 0.2 to 0.3 uCi, iv after 2 mins; format: ADME, organism-based; conditions: in vivo
Liver [8] = assay: Biodistribution in ddY mouse liver at 0.2 to 0.3 uCi, iv after 30 mins; format: ADME, organism-based; conditions: in vivo, 0.5 h
Heart [9] = assay: Biodistribution in ddY mouse heart at 0.2 to 0.3 uCi, iv after 30 mins; format: ADME, organism-based; conditions: in vivo, 0.5 h
Brain [10] = assay: Biodistribution in ddY mouse brain at 0.2 to 0.3 uCi, iv after 2 mins; format: ADME, organism-based; conditions: in vivo
Intestine [11] = assay: Biodistribution in ddY mouse intestine at 0.2 to 0.3 uCi, iv after 30 mins; format: ADME, organism-based; conditions: in vivo, 0.5 h
Stomach [12] = assay: Biodistribution in ddY mouse stomach at 0.2 to 0.3 uCi, iv after 2 mins; format: ADME, organism-based; conditions: in vivo
Spleen [13] = assay: Biodistribution in ddY mouse spleen at 0.2 to 0.3 uCi, iv after 2 mins; format: ADME, organism-based; conditions: in vivo
Blood [14] = assay: Biodistribution in ddY mouse blood at 0.2 to 0.3 uCi, iv after 2 mins; format: ADME, organism-based; conditions: in vivo
Blood [15] = assay: Biodistribution in ddY mouse blood at 0.2 to 0.3 uCi, iv after 30 mins; format: ADME, organism-based; conditions: in vivo, 0.5 h
Lung [16] = assay: Biodistribution in ddY mouse lung at 0.2 to 0.3 uCi, iv after 30 mins; format: ADME, organism-based; conditions: in vivo, 0.5 h
Stomach [17] = assay: Biodistribution in ddY mouse stomach after 30 mins; format: ADME, organism-based; conditions: in vivo, 0.5 h
Brain [18] = assay: Biodistribution in ddY mouse brain at 0.2 to 0.3 uCi, iv after 30 mins; format: ADME, organism-based; conditions: in vivo, 0.5 h
[19] = Displacement of [125I](E)-3-(4-(Dimethylamino-phenyl)-1-(4-iodophenyl)prop-2-en-1-one from beta amyloid(1-42) aggregates; set-up: species or system Homo sapiens

`CNc1ccc(/C=C/C(=O)c2ccc([125I])cc2)cc1` gave a Drug uptake (Liver [1]) of 7.2 % ID/g, a Drug uptake (Heart [2]) of 4.72 % ID/g and a Drug uptake (Kidney [3]) of 11.43 % ID/g. For the same compound, the Drug uptake (Intestine [4]) was 2.06 % ID/g, the Drug uptake (Spleen [5]) was 0.8 % ID/g and the Drug uptake (Lung [6]) was 8.3 % ID/g. The Drug uptake (Kidney [7]) was 6.62 % ID/g, the Drug uptake (Liver [8]) was 8.61 % ID/g and the Drug uptake (Heart [9]) was 1.08 % ID/g. The Drug uptake (Brain [10]) was 4.72 % ID/g, the Drug uptake (Intestine [11]) was 10.46 % ID/g and the Drug uptake (Stomach [12]) was 1.02 %ID. It also gave a Drug uptake (Spleen [13]) of 2.85 % ID/g, a Drug uptake (Blood [14]) of 1.64 % ID/g and a Drug uptake (Blood [15]) of 1.47 % ID/g. For the same compound, the Drug uptake (Lung [16]) was 4.01 % ID/g, the Drug uptake (Stomach [17]) was 1.28 %ID and the Drug uptake (Brain [18]) was 0.61 % ID/g.

`COc1ccc(/C=C/C(=O)c2ccc([125I])cc2)cc1` showed a Drug uptake (Liver [1]) of 5.97 % ID/g, a Drug uptake (Heart [2]) of 3.74 % ID/g and a Drug uptake (Kidney [3]) of 3.27 % ID/g. It also gave a Drug uptake (Intestine [4]) of 1.93 % ID/g, a Drug uptake (Spleen [5]) of 0.29 % ID/g and a Drug uptake (Lung [6]) of 3.81 % ID/g. For the same compound, the Drug uptake (Kidney [7]) was 4.61 % ID/g, the Drug uptake (Liver [8]) was 4.03 % ID/g and the Drug uptake (Heart [9]) was 0.63 % ID/g. It also gave a Drug uptake (Brain [10]) of 2.45 % ID/g, a Drug uptake (Intestine [11]) of 10.19 % ID/g and a Drug uptake (Stomach [12]) of 0.9 %ID. For the same compound, the Drug uptake (Spleen [13]) was 1.38 % ID/g, the Drug uptake (Blood [14]) was 1.34 % ID/g and the Drug uptake (Blood [15]) was 0.46 % ID/g. For the same compound, the Drug uptake (Lung [16]) was 0.79 % ID/g, the Drug uptake (Stomach [17]) was 2.11 %ID and the Drug uptake (Brain [18]) was 0.22 % ID/g.

Compound `CNc1ccc(/C=C/C(=O)c2ccc(I)cc2)cc1` has a Ki [19] of 0.0063 µM.

Work on `Nc1ccc(/C=C/C(=O)c2ccc([125I])cc2)cc1` yielded a Drug uptake (Liver [1]) of 7.52 % ID/g, a Drug uptake (Heart [2]) of 4.59 % ID/g and a Drug uptake (Kidney [3]) of 6.34 % ID/g. It also gave a Drug uptake (Intestine [4]) of 1.84 % ID/g, a Drug uptake (Spleen [5]) of 0.6 % ID/g and a Drug uptake (Lung [6]) of 4.74 % ID/g. For the same compound, the Drug uptake (Kidney [7]) was 6.96 % ID/g, the Drug uptake (Liver [8]) was 8.16 % ID/g and the Drug uptake (Heart [9]) was 0.84 % ID/g. It also gave a Drug uptake (Brain [10]) of 4.49 % ID/g, a Drug uptake (Intestine [11]) of 11.27 % ID/g and a Drug uptake (Stomach [12]) of 0.87 %ID. For the same compound, the Drug uptake (Spleen [13]) was 1.53 % ID/g, the Drug uptake (Blood [14]) was 3.62 % ID/g and the Drug uptake (Blood [15]) was 1.46 % ID/g. For the same compound, the Drug uptake (Lung [16]) was 1.43 % ID/g, the Drug uptake (Stomach [17]) was 1.58 %ID and the Drug uptake (Brain [18]) was 0.46 % ID/g.

With `COc1ccc(/C=C/C(=O)c2ccc(I)cc2)cc1` the Ki [19] was 0.0063 µM.

Compound `Nc1ccc(/C=C/C(=O)c2ccc(I)cc2)cc1` has a Ki [19] of 0.105 µM.

In the case of `CN(C)c1ccc(/C=C/C(=O)c2ccc(I)cc2)cc1`, the Ki [19] is reported as 0.0029 µM.

`O=C(/C=C/c1ccc(O)cc1)c1ccc(I)cc1` gave a Ki [19] of 0.0214 µM.

`Cc1ccc2c(c1)sc(-c1ccc(N(C)C)cc1)[n+]2C` [THIOFLAVIN T] gave a Ki [19] greater than 10 µM.

With `Nc1c(/N=N/c2ccc(-c3ccc(/N=N/c4cc(S(=O)(=O)O)c5ccccc5c4N)cc3)cc2)cc(S(=O)(=O)O)c2ccccc12` [CONGO RED] the Ki [19] was greater than 10 µM.

Work on `O=C(/C=C/c1ccc(O)cc1)c1ccc([125I])cc1` yielded a Drug uptake (Liver [1]) of 8.39 % ID/g, a Drug uptake (Heart [2]) of 5.92 % ID/g and a Drug uptake (Kidney [3]) of 3.51 % ID/g. The Drug uptake (Intestine [4]) was 1.87 % ID/g, the Drug uptake (Spleen [5]) was 1.04 % ID/g and the Drug uptake (Lung [6]) was 10.04 % ID/g. For the same compound, the Drug uptake (Kidney [7]) was 9.3 % ID/g, the Drug uptake (Liver [8]) was 6.64 % ID/g and the Drug uptake (Heart [9]) was 0.49 % ID/g. It also gave a Drug uptake (Brain [10]) of 3.57 % ID/g, a Drug uptake (Intestine [11]) of 12.94 % ID/g and a Drug uptake (Stomach [12]) of 1.22 %ID. The Drug uptake (Spleen [13]) was 3.56 % ID/g, the Drug uptake (Blood [14]) was 1.89 % ID/g and the Drug uptake (Blood [15]) was 0.57 % ID/g. For the same compound, the Drug uptake (Lung [16]) was 1.04 % ID/g, the Drug uptake (Stomach [17]) was 2.16 %ID and the Drug uptake (Brain [18]) was 0.4 % ID/g.

In the case of `CN(C)c1ccc(/C=C/C(=O)c2ccc([125I])cc2)cc1`, the Drug uptake (Liver [1]) is reported as 10.02 % ID/g, the Drug uptake (Heart [2]) is reported as 3.92 % ID/g and the Drug uptake (Kidney [3]) is reported as 11.62 % ID/g. It also gave a Drug uptake (Intestine [4]) of 1.31 % ID/g, a Drug uptake (Spleen [5]) of 0.6 % ID/g and a Drug uptake (Lung [6]) of 3.4 % ID/g. The Drug uptake (Kidney [7]) was 5.32 % ID/g, the Drug uptake (Liver [8]) was 11.04 % ID/g and the Drug uptake (Heart [9]) was 1.18 % ID/g. It also gave a Drug uptake (Brain [10]) of 2.04 % ID/g, a Drug uptake (Intestine [11]) of 10.38 % ID/g and a Drug uptake (Stomach [12]) of 0.96 %ID. It also gave a Drug uptake (Spleen [13]) of 1.37 % ID/g, a Drug uptake (Blood [14]) of 1.85 % ID/g and a Drug uptake (Blood [15]) of 1.4 % ID/g. The Drug uptake (Lung [16]) was 1.84 % ID/g, the Drug uptake (Stomach [17]) was 2.45 %ID and the Drug uptake (Brain [18]) was 0.49 % ID/g.
